This passage reports Drug uptake, Activity and IC50 results from ChEMBL document CHEMBL6078654, “Modular Assembly of Heterotrifunctional Molecules Enabled by Iodosulfonylation of Allenes and Subsequent Amination” (J Med Chem, 2024).

The nature of series [1]: Drug localization in human HCT-116 cells Lysosome assessed as increase fluorescence at 30 uM incubated for 30 mins by lyso-tracker probe based inverted fluorescent microscopic analysis. It is filed as ADME, subcellular. As to conditions: hct-116, 0.5 h.
Series [2] in a line: Drug localization in human HCT-116 cells Endoplasmic reticulum assessed as increase fluorescence at 30 uM incubated for 30 mins by ER-tracker red probe based inverted fluorescent microscopic analysis. It is filed as ADME, subcellular. As to conditions: hct-116, 0.5 h.
Series [3] relates to HCT-116. The series can be described thus: Cytotoxicity against human HCT-116 cells assessed as cell viability at 320 uM incubated for 24 hrs by CCK-8 assay. The class given is toxicity, cell-based. As to conditions: hct-116, 24 h.
Series [4] is described as follows: Photophysical property of the compound assessed as maximum fluorescent emission peak at 0.03125 to 4 uM by fluorescence spectrophotometric analysis. It is filed as physicochemical. The following applies: dose 0.03125-4 µM.
A short description of series [5]: Drug localization in human HCT-116 cells Mitochondria assessed as increase fluorescence at 30 uM incubated for 30 mins by mito-tracker probe based inverted fluorescent microscopic analysis. The class given is ADME. The following applies: hct-116, 0.5 h.
The subject of series [6] is HepG2. Nature of the series: Antiproliferative activity against human HepG2 cells assessed as inhibition of cell proliferation incubated for 24 hrs by CCK-8 assay. The class given is functional, cell-based. As to conditions: HepG2, 24 h. A general note: Formazan colour is commonly taken as a measure of viable cells.
The subject of another series is MDCK. Nature of the series: Effect on TGR5 protein level in dog MDCK cells by Western blot analysis. The class given is functional, cell-based. The following applies: Canis lupus familiaris.
Series [7] relates to HCT-116. The series can be described thus: Antiproliferative activity against human HCT-116 cells assessed as inhibition of cell proliferation incubated for 24 hrs by CCK-8 assay. It is filed as functional, cell-based. The following applies: HCT-116, 24 h.
Series [8] has as its system HepG2. The series can be described thus: Effect on TGR5 protein level in human HepG2 cells by Western blot analysis. It is filed as functional, cell-based. (In general: In western blotting, separated proteins are transferred to a membrane and probed.)
Series [9] has as its system HCT-116. The series can be described thus: Effect on TGR5 protein level in human HCT-116 cells by Western blot analysis. It is filed as functional, cell-based.
Series [10] can be described thus: Antiproliferative activity against dog MDCK cells assessed as inhibition of cell proliferation incubated for 24 hrs by CCK-8 assay. It is filed as toxicity, cell-based, Canis lupus familiaris.
For series [11], the system named is HCT-116. Nature of the series: Cytotoxicity against human HCT-116 cells assessed as cell viability upto 80 uM incubated for 24 hrs by CCK-8 assay. As to conditions: hct-116, 24 h. The class given is toxicity, cell-based.

Activity calls are given as the source filed them. The calls are words filed in the database; no cut-off is given here.

As to `C=C(C(NCCOC(=O)C(C)c1ccc(CC(C)C)cc1)c1ccc(C(=O)OC)cc1)S(=O)(=O)c1cccc2c(N(C)C)cccc12` (configuration not stated), the Drug uptake entry in series [1] is “Not_active”; in series [2] it was “Active”; in series [5], “Not_active”. Moreover, the Activity entry with HCT-116 [3] is “Non-toxic”; in [4], “Active”.
On to `C=C(C(NCCNC(=O)CC[C@@H](C)[C@H]1CC[C@H]2[C@@H]3CC[C@@H]4C[C@H](O)CC[C@]4(C)[C@H]3CC[C@]12C)c1ccc(C(=O)OCCOCCOCCOC(=O)O[C@H]2c3cc4c(cc3[C@@H](c3cc(OC)c(OC)c(OC)c3)[C@H]3C(=O)OC[C@@H]32)OCO4)cc1)S(=O)(=O)c1cccc2c(N(C)C)cccc12` (some centres not stated), for which the IC50 – broadly, the concentration needed to halve the response being measured – in the series on HepG2 [6] was found to be 2.1 µM; in the series on HCT-116 [7], 5.5 µM. Further, the result in the series on MDCK, in the series on HepG2 [8] and with HCT-116 [9] was Active. In addition, the IC50 at 24 h in series [10] came out at 14.6 µM.
Turning to `C=C(C(NCCNC(=O)C(C)c1ccc(CC(C)C)cc1)c1ccc(C(=O)OC)cc1)S(=O)(=O)c1cccc2c(N(C)C)cccc12` (configuration not stated), the Activity result in the series with HCT-116 [11] is recorded as “Toxic”.
